Measurements as given in patent publication US20040014637A1, “Mechanism for the inactivation of insulin receptor and uses in the treatment of type II diabetes” (McGill University, priority 1998, published 2004).

Tests used:
EGF receptor = biological target: T1, EGF receptor (Rattus norvegicus, UniProt G3V6K6); test: EGF receptor autophosphorylation in endosomes in the presence and absence of ATP; format: biochemical; details: ENs from EGF-treated rats incubated with 5 mM ATP
T1 construct: from tissue; host or cells: rat liver endosomes after EGF injection in vivo
T1 sequence (G3V6K6 25-1209): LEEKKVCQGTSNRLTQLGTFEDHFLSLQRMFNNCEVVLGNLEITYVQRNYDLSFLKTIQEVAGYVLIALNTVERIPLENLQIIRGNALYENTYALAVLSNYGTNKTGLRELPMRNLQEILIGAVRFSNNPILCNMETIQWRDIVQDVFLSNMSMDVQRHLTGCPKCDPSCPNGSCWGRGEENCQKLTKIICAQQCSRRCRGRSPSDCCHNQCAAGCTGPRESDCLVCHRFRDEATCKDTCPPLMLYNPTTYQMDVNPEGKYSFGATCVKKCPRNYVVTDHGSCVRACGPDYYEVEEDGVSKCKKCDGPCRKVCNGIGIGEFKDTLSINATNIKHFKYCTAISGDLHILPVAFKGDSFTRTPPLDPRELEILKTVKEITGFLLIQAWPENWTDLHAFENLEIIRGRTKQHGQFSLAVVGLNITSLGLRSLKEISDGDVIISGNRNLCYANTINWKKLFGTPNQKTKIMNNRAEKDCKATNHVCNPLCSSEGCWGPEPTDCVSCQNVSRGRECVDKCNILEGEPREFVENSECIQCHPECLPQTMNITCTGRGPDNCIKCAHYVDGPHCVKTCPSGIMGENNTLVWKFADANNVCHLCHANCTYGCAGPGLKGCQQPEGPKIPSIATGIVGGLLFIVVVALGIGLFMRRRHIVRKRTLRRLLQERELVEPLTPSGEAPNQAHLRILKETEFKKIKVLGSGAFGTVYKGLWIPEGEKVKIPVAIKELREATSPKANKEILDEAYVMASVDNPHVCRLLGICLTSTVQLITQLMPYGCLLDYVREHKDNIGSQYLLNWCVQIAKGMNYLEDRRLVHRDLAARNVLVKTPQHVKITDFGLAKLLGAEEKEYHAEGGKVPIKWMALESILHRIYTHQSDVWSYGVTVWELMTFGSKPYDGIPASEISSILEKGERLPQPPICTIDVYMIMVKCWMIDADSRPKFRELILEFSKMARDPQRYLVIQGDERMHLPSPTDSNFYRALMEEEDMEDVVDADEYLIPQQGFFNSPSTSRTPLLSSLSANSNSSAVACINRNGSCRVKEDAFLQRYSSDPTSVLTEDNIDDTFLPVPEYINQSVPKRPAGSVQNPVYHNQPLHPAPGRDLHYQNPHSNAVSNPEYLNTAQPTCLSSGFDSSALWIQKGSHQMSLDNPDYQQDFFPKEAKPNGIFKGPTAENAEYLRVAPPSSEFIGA
Experimental: EGF (10 μg/100 g body weight) was injected via the jugular vein into anesthetized rats. The animals were sacrificed by decapitation 15 mins later and ENs containing EGF receptor were prepared as noted above. Resuspended ENs containing EGF receptor were incubated for 15 mins with 5 mM ATP after which auto-phosphorylation was initiated by adding ^32P-ATP. The reaction was stopped after 15 mins of incubation at 37° C. by adding Laemmli sample buffer after which aliquots (100 μg protein) were subjected to SDS-PAGE, alkali digestion, and radioautography as described previously (Faure, R. et al. (1992) J. Biol. Chem. 267, 11215-11221).
We then determined whether preincubation with ATP attenuated EGF receptor autophosphorylation. […] EN fractions, prepared 15 mins after injecting rats with EGF (10 μg/100 g body weight), were incubated in the presence or absence of ATP (5 mM) prior to conducting autophosphorylation with ^32P-ATP, SDS-PAGE, and autoradiography.

[1] = biological target: T2, insulin receptor kinase (IRK) (Rattus norvegicus, UniProt P15127); test: DTT-dependent reduction of endosomal IRK heterotetramer (non-reducing SDS-PAGE); format: biochemical; details: ENs incubated with 5 mM ATP, 10 mM DTT, 15 min 37° C.
T2 construct: from tissue; host or cells: rat liver; endosome (EN) and plasma membrane (PM) fractions
T2 sequence (P15127 27-759 limits assumed): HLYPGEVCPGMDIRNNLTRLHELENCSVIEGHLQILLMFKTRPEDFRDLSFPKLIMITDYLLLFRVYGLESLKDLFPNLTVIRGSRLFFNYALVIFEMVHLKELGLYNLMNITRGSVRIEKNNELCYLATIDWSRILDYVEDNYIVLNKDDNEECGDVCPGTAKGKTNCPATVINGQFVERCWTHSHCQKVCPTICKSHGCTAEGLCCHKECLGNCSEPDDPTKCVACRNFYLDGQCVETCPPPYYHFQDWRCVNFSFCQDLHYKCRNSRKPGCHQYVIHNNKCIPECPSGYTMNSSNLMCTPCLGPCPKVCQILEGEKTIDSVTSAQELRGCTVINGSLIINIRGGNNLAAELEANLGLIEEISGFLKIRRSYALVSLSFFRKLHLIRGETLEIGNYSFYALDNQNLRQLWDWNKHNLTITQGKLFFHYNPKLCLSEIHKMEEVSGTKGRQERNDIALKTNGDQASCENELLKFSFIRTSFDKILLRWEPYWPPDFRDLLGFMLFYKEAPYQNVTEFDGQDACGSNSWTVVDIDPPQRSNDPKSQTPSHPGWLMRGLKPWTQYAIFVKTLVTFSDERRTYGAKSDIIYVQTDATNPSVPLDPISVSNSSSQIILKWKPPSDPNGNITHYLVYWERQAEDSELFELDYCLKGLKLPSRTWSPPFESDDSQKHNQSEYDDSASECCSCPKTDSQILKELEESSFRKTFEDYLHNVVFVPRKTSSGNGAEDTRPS
T2 sequence (P15127 764-1383 limits assumed): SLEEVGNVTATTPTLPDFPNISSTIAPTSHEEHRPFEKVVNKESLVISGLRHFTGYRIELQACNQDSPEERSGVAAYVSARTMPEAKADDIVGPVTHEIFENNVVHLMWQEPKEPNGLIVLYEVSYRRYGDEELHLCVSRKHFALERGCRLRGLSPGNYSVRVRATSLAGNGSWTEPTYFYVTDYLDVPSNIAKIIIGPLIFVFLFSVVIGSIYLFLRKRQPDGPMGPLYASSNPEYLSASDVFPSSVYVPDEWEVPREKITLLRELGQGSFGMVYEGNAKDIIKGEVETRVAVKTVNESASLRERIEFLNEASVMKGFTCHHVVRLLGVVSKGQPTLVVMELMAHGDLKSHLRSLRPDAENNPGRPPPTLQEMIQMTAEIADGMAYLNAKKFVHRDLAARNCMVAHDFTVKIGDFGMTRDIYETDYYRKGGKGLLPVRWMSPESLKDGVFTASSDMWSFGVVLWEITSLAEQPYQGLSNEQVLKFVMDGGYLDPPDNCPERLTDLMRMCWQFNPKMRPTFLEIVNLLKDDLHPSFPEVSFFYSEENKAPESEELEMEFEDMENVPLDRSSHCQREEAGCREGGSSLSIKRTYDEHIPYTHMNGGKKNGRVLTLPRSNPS
Experimental: Endosomal pellets containing IR were resuspended (500 μg protein/ml) in a final concentration of 50 mM Tris (pH 6.9), 10% glycerol and 20 mM N-ethylmaleimide. Samples were incubated at room temperature for 5 mins and then solubilized without heating in 2.3% SDS-0.05% bromophenol blue before subjecting to SDS-PAGE in the absence of reductants (Faure et al. ([…]) J. Biol. Chem. 267, 11215-11221).
The above observation raised the possibility that intraluminal events were responsible for deactivation of the endosomal IRK. This led us to investigate whether there might be a conformational change in the IRK consequent to ATP-dependent acidification. To probe this possibility we incubated ENs containing IR with ATP in the presence or absence of 10 mM DTT to assess the ease with which Type I disulfide bonds might be reduced in the heterotetrameric molecule ([…]). […] Hepatic ENs containing IR were prepared 2 mins after insulin injection (1.5 μg/100 g body weight) and were incubated for 15 min at 37° C. in the absence or presence of 10 mM DTT and 5 mM ATP. The ENs were centrifuged and the pellets resuspended and treated as described above. Samples were applied without heating to SDS-PAGE (gradient resolving gel, 3-10% acrylamide) in the absence of reductant. […]

125I-hGH binding = 125I-hGH binding after preincubating endosomes with ATP; set-up: species or system rat; details: preincubation 37° C. 15 min, percent of control
Experimental: (1992) J. Biol. Chem. 267, 11215-11221). Livers were rapidly excised, placed in ice-cold homogenizing buffer (50 mM HEPES (pH 7.4), 0.25 M sucrose, 1 mM PMSF, 1 MM MgCl2, 1 mM benzamidine) and minced before homogenization. Combined ENs and PM fractions were prepared (Faure et al. (1992) J. Biol. Chem. 267, 11215-11221) except that the buffer used throughout was that in which the livers were minced (see above). These subcellular fractions have been characterized in detail both morphologically and biochemically. […] I. et al. (1982) J. Biol. Chem. 257, 5789-5799). Protein content in the fractions was determined by a modification of Bradford's method using serum albumin as a standard (Khan, M. N. et al. […] In the present study we wished to assess whether other processes might be involved in reducing the association of intraendosomal insulin with its receptor. We examined the effect of incubating intact ENs containing IR with increasing concentrations of ATP on subsequently measured insulin and hGH binding in both solubilized and WGA-purified receptors. […] [table]

In the case of `Nc1ncnc2c1ncn2[C@@H]1O[C@H](COP(=O)(O)OP(=O)(O)OP(=O)(O)O)[C@@H](O)[C@H]1O` [ATP, adenosine 5′triphosphate], the “32P-labeling (autophosphorylation) of the EGF receptor (FIG. 3B)” value (EGF receptor) is reported as “no significant attenuation”, the “Ability of DTT to reduce tetrameric IRK molecules (FIG. 8)” value [1] is reported as “significantly decreased” and the “125I-hGH specific binding, WGA-purified endosomes” value (125I-hGH binding; ATP 0.1 mM) is reported as 88.7 ± 3.4%. The “125I-hGH specific binding, solubilized endosomes” value (125I-hGH binding; ATP 0.1 mM) was 105.0 ± 5.1%, the “125I-hGH specific binding, WGA-purified endosomes” value (125I-hGH binding; ATP 1 mM) was 93.3 ± 5.1% and the “125I-hGH specific binding, solubilized endosomes” value (125I-hGH binding; ATP 1 mM) was 84.4 ± 6.6%. The “125I-hGH specific binding, WGA-purified endosomes” value (125I-hGH binding; ATP 10 mM) was 75.2 ± 3.5% and the “125I-hGH specific binding, solubilized endosomes” value (125I-hGH binding; ATP 10 mM) was 98.3 ± 3.5%.
